In publication PMC10144134, “Characterization of Potent ABCG2 Inhibitor Derived from Chromone: From the Mechanism of Inhibition to Human Extracellular Vesicles for Drug Delivery” (Pharmaceutics, 2023):
Entries after “also recorded” stand apart in the source; their conditions may differ.

Columns and labels:
ABCG2 [1] = target: T1, ABCG2 (Homo sapiens, UniProt Q9UNQ0); experiment: Cell-based transport assay by flow cytometry, HEK293-ABCG2; set-up: expressed in transfected cells; host or cells: HEK293 (stably transfected, G418 selection; gift of Dr. Attilio Di Pietro)
T1 sequence (Q9UNQ0 1-655): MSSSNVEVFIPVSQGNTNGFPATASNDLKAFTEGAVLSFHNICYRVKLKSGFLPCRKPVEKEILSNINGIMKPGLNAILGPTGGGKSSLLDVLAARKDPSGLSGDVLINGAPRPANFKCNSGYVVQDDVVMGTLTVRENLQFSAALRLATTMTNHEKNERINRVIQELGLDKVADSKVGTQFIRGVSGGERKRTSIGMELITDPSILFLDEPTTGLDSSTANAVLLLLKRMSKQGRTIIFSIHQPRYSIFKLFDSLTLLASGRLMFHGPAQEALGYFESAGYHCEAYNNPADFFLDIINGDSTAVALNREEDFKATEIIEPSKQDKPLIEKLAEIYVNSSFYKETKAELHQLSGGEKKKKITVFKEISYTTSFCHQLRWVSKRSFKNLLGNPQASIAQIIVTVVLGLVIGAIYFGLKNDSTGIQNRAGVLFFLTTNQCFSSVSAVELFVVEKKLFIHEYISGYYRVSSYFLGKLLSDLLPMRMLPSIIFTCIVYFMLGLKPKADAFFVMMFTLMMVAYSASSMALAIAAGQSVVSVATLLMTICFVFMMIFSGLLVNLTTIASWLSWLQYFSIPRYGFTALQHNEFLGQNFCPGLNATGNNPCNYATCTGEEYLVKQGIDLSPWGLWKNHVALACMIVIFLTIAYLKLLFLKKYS
Procedure: Cell lines (HEK293-ABCG, NIH3T3-ABCB1 and BHK21-ABCC1) were kept at 37 °C in the presence of 5% CO2 in DMEM high glucose (Gibco, Sao Paulo, Brazil) supplemented with 10% Fetal Bovine Serum (Gibco, Sao Paulo, Brazil) and 1% antibiotic (penicillin/streptomycin–Hyclone Laboratories, Logan, UT, USA). The stably transfected cells were kept with specific selection agent for each ABC transporter: ABCG2–G418 0.75 mg/mL, P-gp–Colchicine 60 ng/mL, MRP1–Methotrexate 0.1 mg/mL. The cells HEK293-ABCG2, NIH3T3-ABCB1 and BHK21-ABCC1, overexpressing ABCG2, P-gp and MRP1, respectively, were kindly provided by Dr. Attilio Di Pietro (IBCP, Lyon, France).
Cells were seeded into 24-well plates at a density of 1 × 10^5 cells/well and incubated for 48 h at 37 °C and 5% of CO2. When the confluence reached 90–95%, the medium was removed and the cells were exposed to inhibitors and substrates for 30 min at 37 °C. Then, the cell monolayer was washed with PBS at 37 °C, trypsinized and resuspended with 300 µL of cold PBS. The intracellular fluorescence was recorded by flow cytometry (FACS Calibur–Becton Dickinson, San Diego, CA, USA). At least 10,000 events were acquired. […] The inhibition percent was calculated as follows: % of inhibition = ((C − S))/((I − S)) × 100, where “C” represents the treatment with substrate + compound in test, “S” represents the treatment with substrate alone and “I” represents the treatment with substrate + reference inhibitor.
This study was approved by the Ethics Committee of SCS/UFPR (CAAE 51428521.2.0000.0102). Human blood (9 mL) was collected in tubes containing 8 mM of EGTA and centrifuged at 425× g for 10 min at room temperature. Human plasma (~4 mL) was separated in a new tube. In the tube containing blood cells (~5 mL), the same volume of RPMI (~5 mL) was added. The material was homogenized and centrifuged at 425× g for 10 min at room temperature. The supernatant was discarded, and the pellet of cells was centrifuged again at 425× g for 10 min, then, the supernatant was discarded, and the pellet was suspended in 5 mL of RPMI containing 2 mM of CaCl2. After 1 h of incubation at 37 °C, the material was centrifuged at 425× g for 10 min at 10 °C. Additionally, the tube containing the human plasma was also centrifuged at 425× g for 10 min at 10 °C. The supernatant from both tubes (human cells and plasma) was centrifuged at 4000 g for 10 min at 10 °C. The supernatant was separated and centrifuged at […] for 120 min at 10 °C. The supernatant was discarded and the pellet containing the vesicles was suspended in 60 µL of PBS. The protein concentration was quantified by Bradford assay. For each condition, 10 µL of the vesicles in PBS was diluted by adding 190 µL of PBS. […]

ABCG2 [2] = target: T1, ABCG2; experiment: Thermostabilization assay on ATPase activity of ABCG2; format: biochemical; set-up: expressed in transfected cells; host or cells: HEK293 (stably transfected, G418 selection; gift of Dr. Attilio Di Pietro); details: C4a 10 μM
Procedure: The thermal stability assay was performed according to previous reports. […] To evaluate the effect of C4a over thermal stability, each sample was prepared with 12.5 mM MgCl2 or 6.25 mM ATP and incubated at a temperature ranging from 37 to 71 °C for 10 min using a thermocycler C1000 Touch (Bio-Rad, Hercules, CA, USA). After incubation, 10 µL of 25 mM ATP or 50 mM MgCl2 (5 and 10 mM final concentration, respectively) was added and incubated at 37 °C/20 min to allow ATP hydrolysis. The reaction was stopped with the addition of 50 µL of Pi reagent containing 1% ammonium molybdate, 2.5 N H2SO4 and 0.014% potassium-antimony tartrate. To evaluate the absorbance, the samples were transferred to a 96-well plate (50 µL/well), then 150 µL of 0.33% sodium ascorbate solution was added. The absorbance was measured after 10 min incubation at room temperature using the microplate reader Spectramax iD3 (Molecular Devices, San Jose, CA, USA). The sensitive activity to vanadate (Vi) was calculated as the difference between the activity in the absence of Vi minus the activity in the presence of Vi at each temperature.

COc1ccc2[nH]cc(CCNC(=O)c3cc(=O)c4c(OCc5ccccc5Br)cccc4o3)c2c1 [C4a, chromone 4a]
inhibition of bodipy-prazosin efflux mediated by ABCG2 (ABCG2 [1]; 10 µM, bodipy-prazosin 0.2 µM): inhibited the efflux of all
inhibition of mitoxantrone efflux mediated by ABCG2 (ABCG2 [1]; 10 µM, mitoxantrone 10 µM, HEK293-ABCG2): completely inhibited; also recorded: inhibited the efflux of all
inhibition of pheophorbide-a efflux mediated by ABCG2 (ABCG2 [1]; 10 µM, pheophorbide a 10 µM): inhibited the efflux of all
inhibition of ABCG2 by supernatant (human EV preparation) (ABCG2 [1]; C4a free in supernatant, even at lower concentration tested 0.1 µM): strongly inhibited ABCG2
effect on thermal stability of ABCG2 (ABCG2 [2]): mild effect
IT50, ABCG2 -ATP (ABCG2 [2]; absence of ATP): 50.01 ± 0.26 ºC
IT50 (temperature that reduces 50% of the ATPase activity), ABCG2 +ATP (ABCG2 [2]; presence of ATP): 55.44 ± 0.25 ºC
